In brackets after ≈: the same amount, converted by molar mass. Structures can show the parent of a compound that is named as a salt. Where two headings read alike, the source gives them in different places.
Legend:
[1] = test system: control Gram-negative E. coli 25922 strain; experiment: Antibacterial activity, microbroth dilution MIC, E. coli 25922; format: cell-based, Escherichia coli; conditions: Escherichia coli; E. coli 25922, microbroth dilution; read-out: MIC, 25922
[2] = test system: Klebsiella pneumoniae (K. pneumoniae) 35657; experiment: Antibacterial activity, MIC, K. pneumoniae 35657; format: cell-based; conditions: Klebsiella pneumoniae
[3] = test system: Gram-positive Staphylococcus aureus (S. aureus) 29213; experiment: Antibacterial activity, microbroth dilution MIC, S. aureus 29213; format: cell-based; conditions: Staphylococcus aureus; S. aureus 29213, microbroth dilution; read-out: MIC, 29213
[4] = test system: Acinetobacter baumannii (A. baumannii) BAA747; experiment: Antibacterial activity, MIC, A. baumannii BAA747; format: cell-based; conditions: Acinetobacter baumannii; A. baumannii BAA747; read-out: MIC BAA747
[5] = test system: Pseudomonas aeruginosa (P. aeruginosa) 27853; experiment: Antibacterial activity, MIC, P. aeruginosa 27853; format: cell-based; conditions: Pseudomonas aeruginosa, P. aeruginosa 27853; read-out: MIC 27853
From the text: (§1) The antibacterial activity from a microbroth dilution method may be presented as the minimum inhibitory concentration (MIC in […]). The MIC value is the lowest concentration of a drug which prevents macroscopically visible bacterial growth under test conditions.
Antibacterial activity of test compounds against the Gram-negative bacterium Pseudomonas aeruginosa (P. aeruginosa) 27853 is shown in Table 5.

[6] = test system: super sensitive Gram-negative Escherichia coli (E. coli) BAS849; experiment: Antibacterial activity, microbroth dilution MIC, E. coli BAS849; format: cell-based; conditions: Escherichia coli, read-out: MIC, BAS849
[7] = test system: quinolone resistant E. coli LZ3111; experiment: Antibacterial activity, MIC, quinolone resistant E. coli LZ3111; format: cell-based, Escherichia coli; conditions: Escherichia coli, read-out: MIC, LZ3111
From the text: as §1
Mutations in these regions are known to confer a high level resistance to the quinolone class of antibiotics.

[8] = E. coli BAS849, microbroth dilution

| Structure (SMILES) | MIC [1] [µg/mL] | MIC [2] [µg/mL] | MIC [3] [µg/mL] | MIC [4] [µg/mL] | MIC [5] [µg/mL] | MIC [6] [µg/mL] | MIC [7] [µg/mL] | MIC [6, 8] [µg/mL] |
| --- | --- | --- | --- | --- | --- | --- | --- | --- |
| CCc1cc(C(=O)O)c(=O)[nH]c1-c1ccc(N2CCC(C3(NCc4ccccc4)CC3)C2)cc1.O=C(O)C(F)(F)F (centres unmarked) [Cpd 217, 6-(4-{3-[1-(benzylamino)cyclopropyl]pyrrolidin-1-yl}phenyl)-5-ethyl-2-oxo-1,2-dihydropyridine-3-carboxylic acid trifluoroacetate] | 3.5 to 12.5 | 3.5 to 12.5 | 3.5 to 12.5 | 12.5 to 150 | 12.5 to 150 | < 1 |  |  |
| CCc1cc(C(=O)O)c(=O)[nH]c1-c1ccc(N2CC3CCCCC3(C#N)C2)cc1 (centres unmarked) [Cpd 219, 6-[4-(3a-cyanooctahydro-2H-isoindol-2-yl)phenyl]-5-ethyl-2-oxo-1,2-dihydropyridine-3-carboxylic acid] | 12.5 to 150 (≈ 31.9 to 383 µM) | 12.5 to 150 (≈ 31.9 to 383 µM) | 12.5 to 150 (≈ 31.9 to 383 µM) | 12.5 to 150 (≈ 31.9 to 383 µM) | 12.5 to 150 (≈ 31.9 to 383 µM) |  | 12.5 to 150 (≈ 31.9 to 383 µM) | < 1 |
| CCc1cc(C(=O)O)c(=O)[nH]c1-c1ccc(N2CC[C@@H](O)C2)cc1F [Cpd 225, 5-ethyl-6-{2-fluoro-4-[(3R)-3-hydroxypyrrolidin-1-yl]phenyl}-2-oxo-1,2-dihydropyridine-3-carboxylic acid] | 3.5 to 12.5 (≈ 10.1 to 36.1 µM) | 1 to 3.5 (≈ 2.89 to 10.1 µM) | 12.5 to 150 (≈ 36.1 to 433 µM) | 12.5 to 150 (≈ 36.1 to 433 µM) | 12.5 to 150 (≈ 36.1 to 433 µM) |  | 12.5 to 150 (≈ 36.1 to 433 µM) | < 1 |
| CCc1cc(C(=O)O)c(=O)[nH]c1-c1ccc(N2C[C@@H]3[C@@H](N)[C@@H]3C2)cc1F [Cpd 231, 6-{4-[(1R,5S,6s)-6-amino-3-azabicyclo[3.1.0]hex-3-yl]-2-fluorophenyl}-5-ethyl-2-oxo-1,2-dihydropyridine-3-carboxylic acid trifluoroacetate] | 1 to 3.5 | 1 to 3.5 | 12.5 to 150 | 12.5 to 150 | 12.5 to 150 | < 1 | 12.5 to 150 |  |
| CCc1c(-c2ccc(N3CCC(C4(N(C)C)CC4)C3)cc2)[nH]c(=O)c(C(=O)O)c1O (centres unmarked) [Cpd 247, 6-(4-{3-[1-(dimethylamino)cyclopropyl]pyrrolidin-1-yl}phenyl)-5-ethyl-4-hydroxy-2-oxo-1,2-dihydropyridine-3-carboxylic acid] | 3.5 to 12.5 (≈ 8.51 to 30.4 µM) | 3.5 to 12.5 (≈ 8.51 to 30.4 µM) | 3.5 to 12.5 (≈ 8.51 to 30.4 µM) | 12.5 to 150 (≈ 30.4 to 365 µM) | 12.5 to 150 (≈ 30.4 to 365 µM) |  | 12.5 to 150 (≈ 30.4 to 365 µM) | < 1 |
| CCc1c(-c2ccc(N3C[C@H]4CC[C@H](NC)[C@H]4C3)cc2)[nH]c(=O)c(C(=O)O)c1O.Cl [Cpd 267, 5-ethyl-4-hydroxy-6-{4-[(3aR,4S,6aS)-4-(methylamino)hexahydrocyclopenta[c]pyrrol-2(1H)-yl]phenyl}-2-oxo-1,2-dihydropyridine-3-carboxylic acid hydrochloride] | 3.5 to 12.5 | 3.5 to 12.5 | 12.5 to 150 | 12.5 to 150 | 12.5 to 150 |  | 3.5 to 12.5 | 1 to 3.5 |
| CCc1c(-c2ccc(N3CC4CCCCC4(C#N)C3)cc2)[nH]c(=O)c(C(=O)O)c1O.O=C(O)C(F)(F)F (centres unmarked) [Cpd 276, 6-[4-(3a-cyanooctahydro-2H-isoindol-2-yl)phenyl]-5-ethyl-4-hydroxy-2-oxo-1,2-dihydropyridine-3-carboxylic acid trifluoroacetate] | 12.5 to 150 | 12.5 to 150 | 1 to 3.5 | 12.5 to 150 | 12.5 to 150 | < 1 | 12.5 to 150 |  |
| CCc1c(-c2ccc(N3CC[C@@H](O)C3)cc2F)[nH]c(=O)c(C(=O)O)c1O [Cpd 292, 5-ethyl-6-{2-fluoro-4-[(3R)-3-hydroxypyrrolidin-1-yl]phenyl}-4-hydroxy-2-oxo-1,2-dihydropyridine-3-carboxylic acid] | 1 to 3.5 (≈ 2.76 to 9.66 µM) | 1 to 3.5 (≈ 2.76 to 9.66 µM) | 12.5 to 150 (≈ 34.5 to 414 µM) | 3.5 to 12.5 (≈ 9.66 to 34.5 µM) | 3.5 to 12.5 (≈ 9.66 to 34.5 µM) |  | 12.5 to 150 (≈ 34.5 to 414 µM) | < 1 |
| CCc1c(-c2ccc(N3CC[C@@H](F)C3)cc2F)[nH]c(=O)c(C(=O)O)c1O [Cpd 293, 5-ethyl-6-{2-fluoro-4-[(3R)-3-fluoropyrrolidin-1-yl]phenyl}-4-hydroxy-2-oxo-1,2-dihydropyridine-3-carboxylic acid] | 3.5 to 12.5 (≈ 9.61 to 34.3 µM) | 12.5 to 150 (≈ 34.3 to 412 µM) | 3.5 to 12.5 (≈ 9.61 to 34.3 µM) | 12.5 to 150 (≈ 34.3 to 412 µM) | 12.5 to 150 (≈ 34.3 to 412 µM) |  | 12.5 to 150 (≈ 34.3 to 412 µM) | < 1 |
